Converted amounts (≈) assume the structure as drawn.
Experiments:
Type in all cases: functional
Micrococcus luteus = test: Antibacterial activity against Micrococcus luteus ATCC4698 assessed as growth inhibition incubated at 37 degC for 24 hrs by micro broth dilution method; details: ATCC4698, 24 h
[1] = Antibacterial activity against Bacillus proteus ATCC13315 assessed as growth inhibition incubated at 37 degC for 24 hrs by micro broth dilution method; details: ATCC13315, 24 h
Escherichia coli = test: Antibacterial activity against Escherichia coli JM109 assessed as growth inhibition incubated at 37 degC for 24 hrs by micro broth dilution method; details: JM109, 24 h
Pseudomonas aeruginosa = test: Antibacterial activity against Pseudomonas aeruginosa ATCC27853 assessed as growth inhibition incubated at 37 degC for 24 hrs by micro broth dilution method; details: ATCC27853, 24 h
[2] = Antibacterial activity against Eberthella typhosa ATCC14028 assessed as growth inhibition incubated at 37 degC for 24 hrs by micro broth dilution method; details: ATCC14028, 24 h
Cyberlindnera jadinii = test: Antifungal activity against Candida utilis ATCC9950 assessed as growth inhibition incubated at 35 degC for 24 hrs by micro broth dilution method; details: Williopsis jadinii, ATCC9950, 24 h
Bacillus subtilis = test: Antibacterial activity against Bacillus subtilis ATCC6633 assessed as growth inhibition incubated at 37 degC for 24 hrs by micro broth dilution method; details: ATCC6633, 24 h
Candida albicans = test: Antifungal activity against Candida albicans ATCC10231 assessed as growth inhibition incubated at 35 degC for 24 hrs by micro broth dilution method; details: ATCC10231, 24 h
Staphylococcus aureus [3] = test: Antibacterial activity against Staphylococcus aureus ATCC25923 assessed as growth inhibition incubated at 37 degC for 24 hrs by micro broth dilution method; details: ATCC25923, 24 h
[4] = Antifungal activity against Candida mycoderma ATCC9888 assessed as growth inhibition incubated at 35 degC for 24 hrs by micro broth dilution method; details: Kregervanrija fluxuum
Staphylococcus aureus [5] = test: Antibacterial activity against methicillin resistant Staphylococcus aureus N315 assessed as growth inhibition incubated at 37 degC for 24 hrs by micro broth dilution method; details: N315, 24 h
Saccharomyces cerevisiae = test: Antifungal activity against Saccharomyces cerevisiae ATCC9763 assessed as growth inhibition incubated at 35 degC for 24 hrs by micro broth dilution method; details: ATCC9763, 24 h
Aspergillus flavus = test: Antifungal activity against Aspergillus flavus ATCC204304 assessed as growth inhibition incubated at 35 degC for 24 hrs by micro broth dilution method; details: ATCC204304, 24 h

CCn1cc(C(=O)O)c(=O)c2cc(F)c(N3CCN(CC(O)CSc4nnnn4C)CC3)cc21 (stereo not given)
MIC (Micrococcus luteus): 64 mg/L (≈ 130 µM)
MIC [1]: 128 mg/L (≈ 260 µM)
MIC (Escherichia coli): 8 mg/L (≈ 16.3 µM)
MIC (Pseudomonas aeruginosa): 128 mg/L (≈ 260 µM)
MIC [2]: 32 mg/L (≈ 65.1 µM)
MIC80 (Cyberlindnera jadinii): 64 mg/L (≈ 130 µM)
MIC (Bacillus subtilis): 32 mg/L (≈ 65.1 µM)
MIC80 (Candida albicans): 32 mg/L (≈ 65.1 µM)
MIC (Staphylococcus aureus [3]): 128 mg/L (≈ 260 µM)
MIC80 [4]: 64 mg/L (≈ 130 µM)
MIC (Staphylococcus aureus [5]): 128 mg/L (≈ 260 µM)
MIC80 (Saccharomyces cerevisiae): 128 mg/L (≈ 260 µM)
MIC80 (Aspergillus flavus): 64 mg/L (≈ 130 µM)

O=C(O)c1cn(C2CC2)c2c(Cl)c(N3CCC(NCC4CO4)C3)c(F)cc2c1=O (stereo not given)
MIC (Micrococcus luteus): 0.25 mg/L (≈ 0.593 µM)
MIC [1]: 0.25 mg/L (≈ 0.593 µM)
MIC (Escherichia coli): 0.5 mg/L (≈ 1.19 µM)
MIC (Pseudomonas aeruginosa): 0.5 mg/L (≈ 1.19 µM)
MIC80 (Cyberlindnera jadinii): 4 mg/L (≈ 9.48 µM)
MIC (Bacillus subtilis): 0.25 mg/L (≈ 0.593 µM)
MIC80 (Candida albicans): 2 mg/L (≈ 4.74 µM)
MIC (Staphylococcus aureus [3]): 0.5 mg/L (≈ 1.19 µM)
MIC80 [4]: 2 mg/L (≈ 4.74 µM)
MIC80 (Saccharomyces cerevisiae): 0.25 mg/L (≈ 0.593 µM)
MIC80 (Aspergillus flavus): 0.5 mg/L (≈ 1.19 µM)

NC1CCN(c2c(F)cc3c(=O)c(C(=O)O)cn(C4CC4)c3c2Cl)C1 (stereo not given) [CLINAFLOXACIN]
MIC (Micrococcus luteus): 0.5 mg/L (≈ 1.37 µM)
MIC [1]: 0.5 mg/L (≈ 1.37 µM)
MIC (Escherichia coli): 1 mg/L (≈ 2.73 µM)
MIC (Pseudomonas aeruginosa): 1 mg/L (≈ 2.73 µM)
MIC [2]: 1 mg/L (≈ 2.73 µM)
MIC (Bacillus subtilis): 0.5 mg/L (≈ 1.37 µM)
MIC (Staphylococcus aureus [3]): 0.5 mg/L (≈ 1.37 µM)
MIC (Staphylococcus aureus [5]): 1 mg/L (≈ 2.73 µM)

Cn1ccnc1SCC(O)CN1CCN(c2cc3c(cc2F)c(=O)c(C(=O)O)cn3C2CC2)CC1 (stereo not given)
MIC (Micrococcus luteus): 4 mg/L (≈ 7.97 µM)
MIC [1]: 2 mg/L (≈ 3.99 µM)
MIC (Escherichia coli): 8 mg/L (≈ 15.9 µM)
MIC (Pseudomonas aeruginosa): 8 mg/L (≈ 15.9 µM)
MIC [2]: 1 mg/L (≈ 1.99 µM)
MIC80 (Cyberlindnera jadinii): 128 mg/L (≈ 255 µM)
MIC (Bacillus subtilis): 4 mg/L (≈ 7.97 µM)
MIC80 (Candida albicans): 4 mg/L (≈ 7.97 µM)
MIC (Staphylococcus aureus [3]): 2 mg/L (≈ 3.99 µM)
MIC80 [4]: 16 mg/L (≈ 31.9 µM)
MIC (Staphylococcus aureus [5]): 2 mg/L (≈ 3.99 µM)
MIC80 (Saccharomyces cerevisiae): 32 mg/L (≈ 63.8 µM)
MIC80 (Aspergillus flavus): 64 mg/L (≈ 128 µM)

Sc1ncn(Cc2ccc(Cl)c(Cl)c2)n1
MIC (Micrococcus luteus): 256 mg/L (≈ 984 µM)
MIC [1]: 512 mg/L (≈ 1970 µM)
MIC (Escherichia coli): 256 mg/L (≈ 984 µM)
MIC (Pseudomonas aeruginosa): 512 mg/L (≈ 1970 µM)
MIC [2]: 512 mg/L (≈ 1970 µM)
MIC80 (Cyberlindnera jadinii): 512 mg/L (≈ 1970 µM)
MIC (Bacillus subtilis): 512 mg/L (≈ 1970 µM)
MIC80 (Candida albicans): 512 mg/L (≈ 1970 µM)
MIC (Staphylococcus aureus [3]): 256 mg/L (≈ 984 µM)
MIC80 [4]: 256 mg/L (≈ 984 µM)
MIC (Staphylococcus aureus [5]): 128 mg/L (≈ 492 µM)
MIC80 (Saccharomyces cerevisiae): 512 mg/L (≈ 1970 µM)
MIC80 (Aspergillus flavus): 512 mg/L (≈ 1970 µM)

CCn1cc(C(=O)O)c(=O)c2cc(F)c(N3CCN(CC(O)Cn4cnc(S)n4)CC3)cc21 (stereo not given)
MIC (Micrococcus luteus): 64 mg/L (≈ 134 µM)
MIC [1]: 128 mg/L (≈ 269 µM)
MIC (Escherichia coli): 64 mg/L (≈ 134 µM)
MIC (Pseudomonas aeruginosa): 64 mg/L (≈ 134 µM)
MIC [2]: 64 mg/L (≈ 134 µM)
MIC80 (Cyberlindnera jadinii): 64 mg/L (≈ 134 µM)
MIC (Bacillus subtilis): 128 mg/L (≈ 269 µM)
MIC80 (Candida albicans): 128 mg/L (≈ 269 µM)
MIC (Staphylococcus aureus [3]): 128 mg/L (≈ 269 µM)
MIC80 [4]: 128 mg/L (≈ 269 µM)
MIC (Staphylococcus aureus [5]): 64 mg/L (≈ 134 µM)
MIC80 (Saccharomyces cerevisiae): 128 mg/L (≈ 269 µM)
MIC80 (Aspergillus flavus): 512 mg/L (≈ 1070 µM)

Cn1nnnc1SCC(O)CN1CCN(c2cc3c(cc2F)c(=O)c(C(=O)O)cn3C2CC2)CC1 (stereo not given)
MIC (Micrococcus luteus): 8 mg/L (≈ 15.9 µM)
MIC [1]: 4 mg/L (≈ 7.94 µM)
MIC (Escherichia coli): 8 mg/L (≈ 15.9 µM)
MIC (Pseudomonas aeruginosa): 16 mg/L (≈ 31.8 µM)
MIC80 (Cyberlindnera jadinii): 256 mg/L (≈ 508 µM)
MIC (Bacillus subtilis): 8 mg/L (≈ 15.9 µM)
MIC80 (Candida albicans): 8 mg/L (≈ 15.9 µM)
MIC80 [4]: 16 mg/L (≈ 31.8 µM)
MIC80 (Saccharomyces cerevisiae): 8 mg/L (≈ 15.9 µM)
MIC80 (Aspergillus flavus): 8 mg/L (≈ 15.9 µM)

O=C(O)c1cn(C2CC2)c2cc(N3CCN(CC(O)Cn4cnc(S)n4)CC3)c(F)cc2c1=O (stereo not given)
MIC (Micrococcus luteus): 16 mg/L (≈ 32.8 µM)
MIC [1]: 4 mg/L (≈ 8.19 µM)
MIC (Escherichia coli): 8 mg/L (≈ 16.4 µM)
MIC (Pseudomonas aeruginosa): 4 mg/L (≈ 8.19 µM)
MIC [2]: 1 mg/L (≈ 2.05 µM)
MIC80 (Cyberlindnera jadinii): 128 mg/L (≈ 262 µM)
MIC (Bacillus subtilis): 4 mg/L (≈ 8.19 µM)
MIC80 (Candida albicans): 8 mg/L (≈ 16.4 µM)
MIC (Staphylococcus aureus [3]): 2 mg/L (≈ 4.09 µM)
MIC80 [4]: 32 mg/L (≈ 65.5 µM)
MIC (Staphylococcus aureus [5]): 16 mg/L (≈ 32.8 µM)
MIC80 (Saccharomyces cerevisiae): 64 mg/L (≈ 131 µM)
MIC80 (Aspergillus flavus): 64 mg/L (≈ 131 µM)

Sc1ncn(Cc2ccc(Cl)cc2Cl)n1
MIC (Micrococcus luteus): 128 mg/L (≈ 492 µM)
MIC [1]: 512 mg/L (≈ 1970 µM)
MIC (Escherichia coli): 256 mg/L (≈ 984 µM)
MIC (Pseudomonas aeruginosa): 256 mg/L (≈ 984 µM)
MIC [2]: 256 mg/L (≈ 984 µM)
MIC80 (Cyberlindnera jadinii): 512 mg/L (≈ 1970 µM)
MIC (Bacillus subtilis): 512 mg/L (≈ 1970 µM)
MIC80 (Candida albicans): 512 mg/L (≈ 1970 µM)
MIC (Staphylococcus aureus [3]): 512 mg/L (≈ 1970 µM)
MIC80 [4]: 128 mg/L (≈ 492 µM)
MIC (Staphylococcus aureus [5]): 128 mg/L (≈ 492 µM)
MIC80 (Saccharomyces cerevisiae): 512 mg/L (≈ 1970 µM)
MIC80 (Aspergillus flavus): 256 mg/L (≈ 984 µM)

CCn1cc(C(=O)O)c(=O)c2cc(F)c(N3CCN(CC(O)CSc4nccn4C)CC3)cc21 (stereo not given)
MIC (Micrococcus luteus): 32 mg/L (≈ 65.4 µM)
MIC [1]: 64 mg/L (≈ 131 µM)
MIC (Escherichia coli): 8 mg/L (≈ 16.3 µM)
MIC (Pseudomonas aeruginosa): 64 mg/L (≈ 131 µM)
MIC [2]: 16 mg/L (≈ 32.7 µM)
MIC80 (Cyberlindnera jadinii): 64 mg/L (≈ 131 µM)
MIC (Bacillus subtilis): 16 mg/L (≈ 32.7 µM)
MIC80 (Candida albicans): 16 mg/L (≈ 32.7 µM)
MIC (Staphylococcus aureus [3]): 16 mg/L (≈ 32.7 µM)
MIC80 [4]: 64 mg/L (≈ 131 µM)
MIC (Staphylococcus aureus [5]): 64 mg/L (≈ 131 µM)
MIC80 (Saccharomyces cerevisiae): 128 mg/L (≈ 261 µM)
MIC80 (Aspergillus flavus): 256 mg/L (≈ 523 µM)

Reference: ChEMBL document CHEMBL3739277, “Design, synthesis, and antibacterial evaluation of novel azolylthioether quinolones as MRSA DNA intercalators” (2015)
